Test results reported in ChEMBL document CHEMBL1201862, “PubChem BioAssay data set” (2004).
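Each compound was tested at five concentrations against cells in 96-well plates for 48 hours. The concentration for 50% growth inhibition is given as GI50.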 The source made the active and inactive calls. Rule as the data show it: active = GI50 up to about 1.1 µM and inactive = higher.

Columns and labels:
Test in all cases: NCI-60 cell line screen, 48 h
[1] = system: 786-0
[2] = system: A498
[3] = system: A549
[4] = system: ACHN
[5] = system: CAKI-1
[6] = system: CCRF-CEM
[7] = system: COLO 205
[8] = system: DLD-1
[9] = system: DMS-114
[10] = system: DMS-273
[11] = system: EKVX
[12] = system: HCC 2998
[13] = system: HCT-116
[14] = system: HCT-15
[15] = system: HL-60
[16] = system: HOP-18
[17] = system: HOP-62
[18] = system: HOP-92
[19] = system: HT-29
[20] = system: IGROV-1
[21] = system: K562
[22] = system: KM-20L2
[23] = system: KM12
[24] = system: LXFL 529
[25] = system: M14
[26] = system: M19-MEL
[27] = system: MOLT-4
[28] = system: Malme-3M
[29] = system: NCI-H226
[30] = system: NCI-H23
[31] = system: NCI-H460
[32] = system: NCI-H522
[33] = system: OVCAR-3
[34] = system: OVCAR-4
[35] = system: OVCAR-5
[36] = system: OVCAR-8
[37] = system: RPMI-8226
[38] = system: RXF 393
[39] = system: RXF 631
[40] = system: SF-268
[41] = system: SF-295
[42] = system: SF-539
[43] = system: SK-MEL-28
[44] = system: SK-MEL-2
[45] = system: SK-MEL-5
[46] = system: SK-OV-3
[47] = system: SN12C
[48] = system: SNB-19
[49] = system: SNB-75
[50] = system: SNB-78
[51] = system: SR
[52] = system: SW-620
[53] = system: U-251
[54] = system: UACC-257
[55] = system: UACC-62
[56] = system: UO-31
[57] = system: LOX IMVI
[58] = system: TK-10
[59] = system: XF498

## Cc1ccccc1-n1c(=S)[nH]c2c(sc(=O)n2-c2ccccc2C)c1=O
[1]
  GI50: > 100 µM (inactive)
[2]
  GI50: > 100 µM (inactive)
[3]
  GI50: > 100 µM (inactive)
[4]
  GI50: > 100 µM (inactive)
[5]
  GI50: > 100 µM (inactive)
[6]
  GI50: > 100 µM (inactive)
[7]
  GI50: > 100 µM (inactive)
[8]
  GI50: > 100 µM (inactive)
[9]
  GI50: > 100 µM (inactive)
[10]
  GI50: > 100 µM (inactive)
[11]
  GI50: > 100 µM (inactive)
[12]
  GI50: > 100 µM (inactive)
[13]
  GI50: > 100 µM (inactive)
[14]
  GI50: > 100 µM
[15]
  GI50: > 100 µM (inactive)
[16]
  GI50: > 100 µM (inactive)
[17]
  GI50: > 100 µM (inactive)
[18]
  GI50: > 100 µM (inactive)
[19]
  GI50: > 100 µM (inactive)
[20]
  GI50: > 100 µM (inactive)
[21]
  GI50: > 100 µM (inactive)
[22]
  GI50: > 100 µM (inactive)
[23]
  GI50: > 100 µM (inactive)
[24]
  GI50: > 100 µM (inactive)
[25]
  GI50: > 100 µM (inactive)
[26]
  GI50: > 100 µM (inactive)
[27]
  GI50: > 100 µM (inactive)
[28]
  GI50: > 100 µM (inactive)
[29]
  GI50: > 100 µM (inactive)
[30]
  GI50: > 100 µM (inactive)
[31]
  GI50: > 100 µM (inactive)
[32]
  GI50: > 100 µM (inactive)
[33]
  GI50: > 100 µM (inactive)
[34]
  GI50: > 100 µM (inactive)
[35]
  GI50: > 100 µM (inactive)
[36]
  GI50: > 100 µM (inactive)
[37]
  GI50: > 100 µM (inactive)
[38]
  GI50: > 100 µM (inactive)
[39]
  GI50: > 100 µM (inactive)
[40]
  GI50: > 100 µM (inactive)
[41]
  GI50: > 100 µM (inactive)
[42]
  GI50: > 100 µM (inactive)
[43]
  GI50: > 100 µM (inactive)
[44]
  GI50: > 100 µM (inactive)
[45]
  GI50: > 100 µM (inactive)
[46]
  GI50: > 100 µM (inactive)
[47]
  GI50: > 100 µM (inactive)
[48]
  GI50: > 100 µM (inactive)
[49]
  GI50: > 100 µM (inactive)
[50]
  GI50: > 100 µM (inactive)
[51]
  GI50: > 100 µM (inactive)
[52]
  GI50: > 100 µM (inactive)
[53]
  GI50: > 100 µM (inactive)
[54]
  GI50: > 100 µM (inactive)
[55]
  GI50: > 100 µM (inactive)
[56]
  GI50: > 100 µM (inactive)

## CCOC(=O)Cc1nc2ccccc2s1
[1]
  GI50: 18.9 µM (inactive)
[2]
  GI50: 18.5 µM (inactive)
[3]
  GI50: 22.9 µM (inactive)
[4]
  GI50: 17.1 µM (inactive)
[5]
  GI50: 19.6 µM (inactive)
[6]
  GI50: 18.8 µM (inactive)
[7]
  GI50: 38.6 µM (inactive)
[8]
  GI50: 16.6 µM (inactive)
[10]
  GI50: 22.6 µM (inactive)
[11]
  GI50: 39.4 µM (inactive)
[12]
  GI50: 88.1 µM (inactive)
[13]
  GI50: 18.2 µM (inactive)
[15]
  GI50: 18.2 µM (inactive)
[16]
  GI50: 24.8 µM (inactive)
[17]
  GI50: 22.9 µM (inactive)
[19]
  GI50: 19.6 µM (inactive)
[20]
  GI50: 39 µM (inactive)
[21]
  GI50: 25.4 µM (inactive)
[22]
  GI50: 27.6 µM (inactive)
[23]
  GI50: > 10 µM (inactive)
[57]
  GI50: 17.8 µM (inactive)
[24]
  GI50: 16 µM (inactive)
[25]
  GI50: 16.6 µM (inactive)
[26]
  GI50: 18.4 µM (inactive)
[27]
  GI50: 25.6 µM (inactive)
[28]
  GI50: 16.3 µM (inactive)
[29]
  GI50: 21.8 µM (inactive)
[30]
  GI50: 15.6 µM (inactive)
[31]
  GI50: 20.4 µM (inactive)
[32]
  GI50: 19.6 µM (inactive)
[33]
  GI50: > 10 µM (inactive)
[34]
  GI50: > 10 µM (inactive)
[35]
  GI50: 24.9 µM (inactive)
[36]
  GI50: 17.5 µM (inactive)
[38]
  GI50: 20.9 µM (inactive)
[39]
  GI50: 16.8 µM (inactive)
[40]
  GI50: 18.6 µM (inactive)
[41]
  GI50: 17.7 µM (inactive)
[42]
  GI50: 18.4 µM (inactive)
[43]
  GI50: 15 µM (inactive)
[44]
  GI50: 18.2 µM (inactive)
[45]
  GI50: 20.6 µM (inactive)
[46]
  GI50: 50.9 µM (inactive)
[47]
  GI50: 16.8 µM (inactive)
[48]
  GI50: 44.5 µM (inactive)
[49]
  GI50: 29.3 µM (inactive)
[50]
  GI50: 18.1 µM (inactive)
[51]
  GI50: 20.1 µM (inactive)
[52]
  GI50: 19.2 µM (inactive)
[58]
  GI50: 27.5 µM (inactive)
[53]
  GI50: 17 µM (inactive)
[54]
  GI50: 17.3 µM (inactive)
[55]
  GI50: 17.9 µM (inactive)
[56]
  GI50: 15.8 µM (inactive)
[59]
  GI50: 14.8 µM (inactive)
